# Results: patent US20250161295A1, “EXATECAN FORMULATION” (Yale University, priority 2022, published 2025)
# Where a name gives a salt, the structure may show the parent alone.
# What was measured:
# [1] = tested on: SCC tumors (PDVC57 cells); assay: Intratumoral injection of exatecan in PDVC57 SCC tumors (Example 1, Experiments 1 and 2): tumor outcome; assay type: in vivo, C57BL/6J mice
# Protocol: (§1) Exatecan mesylate (“EXA”) (DX895If; MedChemExpress #HY-13631A) was dissolved in sterile dH20 (Invitrogen 10977-023) to prepare a 5 mg/mL or a 10 mg/mL stock solution. […] The concentration was confirmed by HPLC and further dilutions prepared as needed in sterile dH2O.
# Control groups received an equal volume of sterile dH2O.
# 16 days post-treatment, when the first vehicle control tumors reached 1 cm in one dimension, half (N=5) of each group was harvested for histology: tumors were measured, ranked by volume (V=(½)(W^2×L)), and every-other one harvested (#1, 3, 5, 7, and 9 were harvested and #2, 4, 6, 8, and 10 were not).
# [2] = pH-dependent exatecan mesylate solubility in phosphate buffers (precipitate rating); assay type: physicochemical; set-up: key to Precipitate rating (Yes/No): Precipitate rating “Yes” means visible precipitate observed at 10× magnification; “No” means no visible precipitate observed at 10× magnification
# Protocol: Materials and methods A water-based formulation was made containing exatecan mesylate at a concentration of 10 mg/mL exatecan mesylate in water (Invitrogen UltraPure Distilled Water #10977-015). Phosphate buffers A and B were made by dissolving either 1M potassium phosphate monobasic (KH2PO4) for buffer A or 1M potassium phosphate dibasic ([…]) for buffer B in distilled water. Solutions with pH values ranging between 4.3 and 9.6 were prepared by mixing buffer A (pH 4.3) with buffer B (pH 9.6) at pre-determined percentages. A pH meter was used to confirm the pH of the resulting phosphate buffer solutions by dipping the electrode into the solution.
# To determine the pH solubility of the water-based formulation, 5 μL of the 10 mg/mL EXA in DI water was added to 100 μL 1M phosphate buffer at varying pH levels in a 96-well plate to produce a final concentration of […] EXA per milliliter. The solubility tests were conducted at pH 4.30 (0% buffer B), pH 5.6 (10% buffer B), pH 6.1 (20% buffer B), pH 6.4 (30% buffer B), pH 6.7 (40% buffer B), pH 7.0 (50% buffer B), pH 7.2 (60% buffer B), pH 7.5 (70% buffer B), pH 7.8 (80% buffer B), pH 8.2 (90% buffer B) and pH 9.6 (100% buffer B). Precipitation was assessed and images of the precipitate at the bottom of the 96-well plate were taken after 1 hour.
# [3] = Dissolution of exatecan mesylate in sterile dH2O (stock preparation); assay type: physicochemical
# Protocol: as §1
# [4] = tested on: PDVC57 cells (SCC tumors); assay: Single intratumoral injection of water-based exatecan mesylate formulation in mouse model of SCC (Example 3); assay type: in vivo, C57BL/6J mice
# Protocol: Six-week old female C57BL/6J mice were used in this study.
# PDVC57 cells were developed in, and obtained from, the laboratory of Dr. Allan Balmain (Quintanilla, et al., Carcinogenesis 1991, 12 (10), 1875-1881). Mice were anesthetized with avertin and their flanks shaved. The mice were then given an intradermal injection with of 5 million PDVC57 cells in suspension in 100 μL PBS. A 1 cc syringe fitted with a 27 g needle was used for the intradermal injection.
# Seven days following tumor cell inoculation, the mice were given either a single intratumoral injection of 10 mg/mL exatecan mesylate in ultrapure distilled water (Invitrogen, Catalog #10977-015) or a vehicle injection using a BD insulin syringe (30-gauge×8 mm needle; #328468). The vehicle was invitrogen UltraPure Distilled Water #10977-015. The treatment volume was 0.02 mL.
# Mice were sedated. Calipers were used to measure tumor diameter. Tumor volume was calculated from micrometer measurements using the following formula: […]
# When tumors reached the endpoint, i.e., tumor volume of 1 cm^3, mice were euthanized by isoflurane inhalation and tumors dissected away from subcutaneous tissue. Isolated tumors were bisected along the longest axis, fixed in 10% neutral buffered fonnalin and submitted to Yale Research Pathology for embedding, sectioning, and H&E staining. Resulting slides were scanned using a Zeiss AxioObserver Z1 with TissueGnostics TissueFAXS software. Images were analyzed using Fiji software.
# In a first experiment, 20 mice with tumors ranging in size from 45-85 mm^3 were examined. The group size was 10. Ten of the mice were given a single injection of a water-based formulation containing exatecan mesylate (10 mg/mL), while the other 10 mice received a vehicle injection of ultrapure DI water and served as the control group. For each group (experimental group or control), half of the mice were harvested 16 days post-treatment for histological assessment, the other half were harvested 32 days post-treatment if they had discernible tumors or monitored until day 66 if no palpable tumors were observed.
# [5] = tested on: PDVC57 cells (SCC tumors); assay: Single intratumoral injection of water-based exatecan mesylate formulation, followed to endpoint tumor volume 1 cm^3 (Example 4); assay type: in vivo, C57BL/6J mice
# Protocol: In a second experiment, 15 mice with tumors ranging in size from 50-100 mm^3, calculated as described above, were examined.
# PDVC57 cells were injected into 6-week-old female C57BL/6J mice. Treatment was administered by a single intratumoral injection seven days after tumor cell inoculation. Intratumoral injection was performed using BD insulin syringe (30-gauge×8 mm needle; #328468). The vehicle was Invitrogen UltraPure Distilled Water #10977-015.
# The experimental group received 10 mg/mL exatecan. The treatment volume was 0.02 mL. Ten of the mice were given a single injection of a water-based formulation containing exatecan mesylate while the other 5 mice received a vehicle injection of ultrapure DI water and served as the control group. These mice were observed until the endpoint at which their tumor volume was 1 cm^3. […]
# [6] = tested on: PDVC57 cells (SCC tumors); assay: Titrated doses of a single injection of water-based exatecan mesylate formulation on tumor size (Example 5); assay type: in vivo, C57BL/6J mice
# Protocol: In a third experiment, 15 mice (i.e., five groups each containing three mice) with tumors ranging in size 59-80 mm^3, calculated as described above, were examined. PDVC57 cells were injected into 6-week-old female C57BL/6J mice. Treatment was administered seven days after tumor cell inoculation. Intratumoral injection performed using BD insulin syringe (30-gauge×8 mm needle; #328468). Mice were randomly assigned to one of five groups and were given a single intratumoral injection of either the vehicle (UltraPure Distilled Water, Invitrogen, #10977-015) or one of the following concentrations of the water-based formulation containing exatecan mesylate: 10 mg/mL, 5 mg/mL, 2.5 mg/mL or 1.25 mg/mL for a total treatment volume of 0.02 mL. All the mice were harvested 14 days post treatment for histological assessments.
# [7] = tested on: ID8-Luc tumor cells; assay: BNP-111 in vivo efficacy in ID8 ovarian cancer model (IVIS tumor burden); set-up: species or system C57Bl/6 mice; settings: 2.5 mpk i.p. once weekly x4; day 56
# Protocol: Luciferase expressing ID8-Luc tumor cells were washed twice in sterile PBS, resuspended in sterile PBS and a 1 ml 27 G syringe used to inject 1 million cells intraperitoneally (i.p.) into syngeneic female C57Bl/6 mice.
# [8] = mouse, in vivo
# Protocol: (§2) SCC tumors were established by subcutaneous injection of 5 million PDVC57 cells into the right flank of syngeneic C57BL/6J mice. Seven days later, when tumors ranged from 4.5-5.5 mm in diameter, mice were evenly distributed among the treatment groups (N=5-10 mice/group, see below) and received intratumoral injections of vehicle (dH2O) or exatecan.
# (§3) A 0.5-mL 31 G syringe (BD Insulin Syringe #328468) was used to deliver 0.1 mg or 0.2 mg exatecan in a 20-microliter volume, or 0.4 mg in a 40-microliter volume (because of solubility limitations). Control groups received an equal volume of sterile dH2O. The needle was placed into the tumor and the appropriate volume was slowly injected (approximately over 5 sec). The needle was held in place for 10 seconds after the injection was complete, then slowly removed while maintaining finger pressure on the injection site.
# [9] = tested on: SCC tumors (PDVC57 cells); assay: Intratumoral injection of exatecan in PDVC57 SCC tumors (Example 1, Experiments 1 and 2): tumor outcome; assay type: in vivo, C57BL/6J mice; settings: EXA 0.2 mg single intratumoral injection; of 6 mice harvested (4 not harvested)
# [10] = Intratumoral injection of exatecan (Example 1): toxicity
# Protocol: as §2, §3
# [11] = 10 mg/mL, 0.02 mL single injection
structure (smiles),measurement,setting,value
"CC[C@@]1(O)C(=O)OCc2c1cc1n(c2=O)Cc2c-1nc1cc(F)c(C)c3c1c2[C@@H](N)CC3 [EXA, Exatecan mesylate]",Mice whose tumor progressed to 1 cm,"[1]; 0.2 mg, the five mice not harvested on day 16",one of the remaining five
same,Efficacy of treatment (summary),[1]; 0.2-mg dose per animal,very effective
same,Tumor incidence,[1]; EXA 0.1 mg x2,57%
same,Tumor incidence (mice),[1]; EXA 0.1 mg x2,4 of 7
same,"Mice remaining (days post-treatment), no palpable tumor","[1]; EXA 0.1 mg x2, day 36",2 (day 36) -
same,Histology (N): mice with tumor,"[1]; EXA 0.1 mg x2, of 5 mice harvested (2 not harvested)",Tumor in 4
same,Tumor incidence,"[1]; EXA 0.2 mg single injection, N=10",20%
same,"Mice remaining (days post-treatment), no palpable tumor","[1]; EXA 0.2 mg single injection, day 53",4 (day 53) -
same,"Mice remaining (days post-treatment), no palpable tumor","[1]; EXA 0.2 mg single injection, day 53, listed as exatecan",four
same,"Mice remaining (days post-treatment), no palpable tumor","[1]; EXA 0.4 mg single injection, day 36",1 (day 36) -
same,Efficacy compared with single 0.2 mg dose,[1]; two doses of 0.1 mg per animal separated by 3 days,less effective
same,pH at which enhanced precipitation and decrease in solubility is shown,[2]; 1M phosphate buffer,≥ 7.12
same,Precipitate rating (Yes/No),"[2]; Control (distilled water), 0% buffer A, 0% buffer B, pH 7",No
same,Onset of precipitation after addition to phosphate buffer,[2]; EXA/DI water mixture added to phosphate buffer,generally immediate
same,Precipitate rating (Yes/No),"[2]; Sample 1: 100% buffer A, 0% buffer B, pH 4.3",No
same,Precipitate rating (Yes/No),"[2]; Sample 2: 90% buffer A, 10% buffer B, pH 5.6",No
same,Precipitate rating (Yes/No),"[2]; Sample 3: 80% buffer A, 20% buffer B, pH 6.1",No
same,Precipitate rating (Yes/No),"[2]; Sample 4: 70% buffer A, 30% buffer B, pH 6.4",No
same,Precipitate rating (Yes/No),"[2]; Sample 5: 60% buffer A, 40% buffer B, pH 6.7",Yes
same,Precipitate rating (Yes/No),"[2]; Sample 6: 50% buffer A, 50% buffer B, pH 7.0",Yes
same,Precipitate rating (Yes/No),"[2]; Sample 7: 40% buffer A, 60% buffer B, pH 7.2",Yes
same,Precipitate rating (Yes/No),"[2]; Sample 8: 30% buffer A, 70% buffer B, pH 7.5",Yes
same,Precipitate rating (Yes/No),"[2]; Sample 9: 20% buffer A, 80% buffer B, pH 7.8",Yes
same,Precipitate rating (Yes/No),"[2]; Sample 10: 10% buffer A, 90% buffer B, pH 8.2",Yes
same,Precipitate rating (Yes/No),"[2]; Sample 11: 0% buffer A, 100% buffer B, pH 9.6",Yes
same,Dissolution in sterile dH2O,[3]; 10 mg/mL stock,warming to 60 °C plus sonication and vortexing were needed
same,Dissolution in sterile dH2O,[3]; at 5 mg/mL,dissolves immediately
same,"Mice remaining (day 66 post-treatment), no palpable tumor",[4]; [11],4 - no
same,Tumor incidence overall,[4]; [11],(20%)
same,Tumor incidence overall (mice),[4]; [11],2 of 10
same,Day 32 harvest for histology: tumor in,"[4]; 10 mg/mL, 0.02 mL single injection, 4 mice not harvested",1 of 1. 4
same,% of mice that eliminated their tumor,"[4]; 10 mg/mL, 0.02 mL single injection, assessed at day 16 and day 66",80%
same,Day 16 harvest for histology: tumor in,"[4]; 10 mg/mL, 0.02 mL single intratumoral injection",1 of 5
same,Histological assessment: mice with no discernible tumor,[4]; 5 mice per group,4 out of 5
same,Inflammation of surrounding tissue compared to vehicle-treated mice,"[4]; single dose, histology",decreased inflammation
same,Tissue damage,"[4]; single dose, histology",minimal tissue damage
same,Mice with tumors that reached endpoint volume (1 cm^3),"[5]; 10 mg/mL, 0.02 mL single injection, through day 77",4 of 10
same,Mantel-Cox log rank test p (survival vs dH2O vehicle),"[5]; 77 days post-treatment, 10 mg/mL, 0.02 mL",< 0.0001
same,Cure,[5]; Day 77 post-treatment,60%
same,Mice remaining with no palpable tumor,[5]; Day 77 post-treatment,6 of the 10
same,Mice with a large tumor (clinical images),"[5]; day 22 post-treatment, 10 mg/mL, 0.02 mL",1 of 10
same,Time at which tumors reached endpoint volume,[5]; the 4 mice that reached 1 cm^3,34-52 days post-treatment
same,Tumor size compared to vehicle,"[6]; 2.5 mg/mL, 0.02 mL, 14 days",almost complete reduction in tumor size
same,Tumor size compared to vehicle,"[6]; 5 mg/mL, 0.02 mL, 14 days",almost complete reduction in tumor size
same,Tumor size compared to 1.25 mg/mL and vehicle,"[6]; 10 mg/mL, 0.02 mL, 14 days",significantly reduced tumors
same,Tumor size compared to vehicle,"[6]; all doses administered (10, 5, 2.5, 1.25 mg/mL; 0.02 mL), 14 days post treatment",reduced tumor size
same,Reduction of tumor burden (photon flux),[7],62.16%
same,Tolerability compared with single 0.2 mg dose,[8],less well tolerated
same,Histology (N): mice with tumor,[9],Tumor in 2
same,Toxicity (summary),[10]; 0.4 mg per animal,lethality
same,Toxicity: number of mice in which lethal,"[10]; EXA 0.1 mg x2 (day 0 and day 3), of 9 mice",Lethal in 2 of
same,Toxicity: number of mice in which lethal,"[10]; EXA 0.4 mg single injection, of 8 mice",Lethal in 7 of
